Structures are written as SMILES.

The target of the experiment is T1, hROMK (hKir1.1) (Homo sapiens, UniProt P48048).
T1 construct: expressed in transfected cells
T1 sequence (P48048 1-391): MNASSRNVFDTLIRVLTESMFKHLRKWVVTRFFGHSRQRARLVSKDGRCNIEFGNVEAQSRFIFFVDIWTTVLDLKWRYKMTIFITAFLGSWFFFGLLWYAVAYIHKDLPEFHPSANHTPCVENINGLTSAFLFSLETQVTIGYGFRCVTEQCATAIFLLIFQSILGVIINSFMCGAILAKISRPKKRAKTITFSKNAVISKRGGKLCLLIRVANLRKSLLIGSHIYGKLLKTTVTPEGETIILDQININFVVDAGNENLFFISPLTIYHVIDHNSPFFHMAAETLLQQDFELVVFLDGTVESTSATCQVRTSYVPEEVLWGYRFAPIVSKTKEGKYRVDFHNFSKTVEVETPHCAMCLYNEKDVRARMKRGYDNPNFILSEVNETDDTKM
Nature of the experiment: Thallium Flux Assay (ROMK channel functional thallium flux, FLIPR-Tetra). Type of experiment: cell-based. The conditions noted are these: HEK293 cells stably expressing hROMK (hKir1.1); 30 min compound incubation. Summed up:
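HEK293 cells stably expressing hKir1.1, loaded with FluxOR dye for 90 min, then preincubated with compound for 30 min at ambient temperature with 0.3 mM ouabain and probenecid. Stimulated with 3 mM thallium/0.3 mM potassium (final); fluorescence read ~10 min. Normalized to 3 μM reference ROMK inhibitor; IC50 from inhibition of flux.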
By IC50 is commonly meant the midpoint of a concentration-inhibition curve. `O=C1C=C(N2CCC3(CC4CCC(C3)N4C[C@H](O)c3ccc(-n4cnnn4)nn3)C2=O)CO1` (stereo partly drawn) [Example 44, (1R,5R)-8-{(2S)-2-hydroxy-2-[6-(1H-tetrazol-1-yl)pyridazin-3-yl]ethyl}-2′-oxo-1′-(5-oxo-2,5-dihydrofuran-3-yl)spiro[8-azoniabicyclo[3.2.1]octane-3,3′-pyrrolidine]]: the IC50 amounted to 10 nM. With `CC1=C(N2CCC3(CC4CCC(C3)N4C[C@H](O)c3cnc(-n4cnnn4)nc3)C2=O)COC1=O` (stereo partly drawn) [Example 45, (1R,5R)-8-{(2R)-2-hydroxy-2-[2-(1H-tetrazol-1-yl)pyrimidin-5-yl]ethyl}-1′-(4-methyl-5-oxo-2,5-dihydrofuran-3-yl)-2′-oxospiro[8-azoniabicyclo[3.2.1]octane-3,3′-pyrrolidine]] the figure was 30 nM. The molecule `CC1=C(N2CCC3(CC4CCC(C3)N4C[C@@H](O)c3ccc(-n4cnnn4)cn3)C2=O)COC1=O` (stereo partly drawn) [Example 46, (1R,5R)-8-{(2R)-2-hydroxy-2-[5-(1H-tetrazol-1-yl)pyridin-2-yl]ethyl}-1′-(4-methyl-5-oxo-2,5-dihydrofuran-3-yl)-2′-oxospiro[8-azoniabicyclo[3.2.1]octane-3,3′-pyrrolidine]] registered an IC50 of 20 nM. In turn, `CC1=C(N2CCC3(CC4CCC(C3)N4C[C@H](O)c3ccc(-n4cnnn4)cn3)C2=O)COC1=O` (stereo partly drawn) [Example 47, (1R,5R)-8-{(2S)-2-hydroxy-2-[5-(1H-tetrazol-1-yl)pyridin-2-yl]ethyl}-1′-(4-methyl-5-oxo-2,5-dihydrofuran-3-yl)-2′-oxospiro[8-azoniabicyclo[3.2.1]octane-3,3′-pyrrolidine]] yielded an IC50 of 20 nM.

The molecule `CC1=C(N2CCC3(CC4CCC(C3)N4C[C@H](O)c3cnc(-n4cnnn4)cn3)C2=O)COC1=O` (stereo partly drawn) [Example 48, (1R,5R)-8-{(2S)-2-hydroxy-2-[5-(1H-tetrazol-1-yl)pyrazin-2-yl]ethyl}-1′-(4-methyl-5-oxo-2,5-dihydrofuran-3-yl)-2′-oxospiro[8-azoniabicyclo[3.2.1]octane-3,3′-pyrrolidine]] yielded an IC50 of 30 nM. The molecule `CC1=C(N2CCC3(CC4CCC(C3)N4C[C@@H](O)c3cnc(-n4cnnn4)cn3)C2=O)COC1=O` (stereo partly drawn) [Example 49, (1R,5R)-8-{(2R)-2-hydroxy-2-[5-(1H-tetrazol-1-yl)pyrazin-2-yl]ethyl}-1′-(4-methyl-5-oxo-2,5-dihydrofuran-3-yl)-2′-oxospiro[8-azoniabicyclo[3.2.1]octane-3,3′-pyrrolidine]] yielded a 50% inhibitory concentration (IC50) of 90 nM. With `CC1=C(N2CCC3(CC4CCC(C3)N4C[C@H](O)c3nnc(-n4cnnn4)c(C)c3C)C2=O)COC1=O` (stereo partly drawn) [Example 50, (1R,5R)-8-{(2S)-2-[4,5-dimethyl-6-(1H-tetrazol-1-yl)pyridazin-3-yl]-2-hydroxyethyl}-1′-(4-methyl-5-oxo-2,5-dihydrofuran-3-yl)-2′-oxospiro[8-azoniabicyclo[3.2.1]octane-3,3′-pyrrolidine]] the figure was 20 nM; with `CC1=C(N2CCC3(CC4CCC(C3)N4C[C@@H](O)c3nnc(-n4cnnn4)c(C)c3C)C2=O)COC1=O` (stereo partly drawn) [Example 51, (1R,5R)-8-{(2R)-2-[4,5-dimethyl-6-(1H-tetrazol-1-yl)pyridazin-3-yl]-2-hydroxyethyl}-1′-(4-methyl-5-oxo-2,5-dihydrofuran-3-yl)-2′-oxospiro[8-azoniabicyclo[3.2.1]octane-3,3′-pyrrolidine]], 30 nM; with `CC1=C(N2CCC3(CC4CCC(C3)N4C[C@H](O)c3ccc(-n4cnnn4)nn3)C2=O)COC1=O` (stereo partly drawn) [Example 52, (1R,5R)-8-{(2S)-2-hydroxy-2-[6-(1H-tetrazol-1-yl)pyridazin-3-yl]ethyl}-1′-(4-methyl-5-oxo-2,5-dihydrofuran-3-yl)-2′-oxospiro[8-azoniabicyclo[3.2.1]octane-3,3′-pyrrolidine]], 10 nM. `CC1=C(N2CCC3(CC4CCC(C3)N4C[C@@H](O)c3ccc(-n4cnnn4)nn3)C2=O)COC1=O` (stereo partly drawn) [Example 53, (1R,5R)-8-{(2R)-2-hydroxy-2-[6-(1H-tetrazol-1-yl)pyridazin-3-yl]ethyl}-1′-(4-methyl-5-oxo-2,5-dihydrofuran-3-yl)-2′-oxospiro[8-azoniabicyclo[3.2.1]octane-3,3′-pyrrolidine]] displayed an IC50 of 10 nM. With `CC1=C(N2CCC3(CC4CCC(C3)N4C[C@@H](O)c3cc(C)c(-n4cnnn4)nn3)C2=O)COC1=O` (stereo partly drawn) [Example 54, (1R,5R)-8-{(2R)-2-hydroxy-2-[5-methyl-6-(1H-tetrazol-1-yl)pyridazin-3-yl]ethyl}-1′-(4-methyl-5-oxo-2,5-dihydrofuran-3-yl)-2′-oxospiro[8-azoniabicyclo[3.2.1]octane-3,3′-pyrrolidine]] the figure was 20 nM. Regarding `CC1=C(N2CCC3(CC4CCC(C3)N4C[C@H](O)c3cc(C)c(-n4cnnn4)nn3)C2=O)COC1=O` (stereo partly drawn) [Example 55, (1R,5R)-8-{(2S)-2-hydroxy-2-[5-methyl-6-(1H-tetrazol-1-yl)pyridazin-3-yl]ethyl}-1′-(4-methyl-5-oxo-2,5-dihydrofuran-3-yl)-2′-oxospiro[8-azoniabicyclo[3.2.1]octane-3,3′-pyrrolidine]], the IC50 was found to be 50 nM.

In turn, `Cc1nc(-n2cnnn2)ccc1[C@@H](O)CN1CCC2(CC1)CCN(C1=C(C3CC3)C(=O)OC1)C2=O` [Example 60, 2-(4-cyclopropyl-5-oxo-2,5-dihydrofuran-3-yl)-8-{(2R)-2-hydroxy-2-[2-methyl-6-(1H-tetrazol-1-yl)pyridin-3-yl]ethyl}-1-oxo-2-aza-8-azoniaspiro[4.5]decane] displayed an IC50 of 40 nM. Turning to `CC1=C(N2CCC3(CCN(C[C@H](O)c4cccc(-n5cnnn5)c4)CC3)C2=O)COC1=O` [Example 61, 8-{(2R)-2-hydroxy-2-[3-(1H-tetrazol-1-yl)phenyl]ethyl}-2-(4-methyl-5-oxo-2,5-dihydrofuran-3-yl)-1-oxo-2-aza-8-azoniaspiro[4.5]decane], the IC50 worked out at 70 nM. `CC1=C(N2CCC3(CCN(C[C@@H](O)c4cccc(-n5cnnn5)c4)CC3)C2=O)COC1=O` [Example 62, 8-{(2S)-2-hydroxy-2-[3-(1H-tetrazol-1-yl)phenyl]ethyl}-2-(4-methyl-5-oxo-2,5-dihydrofuran-3-yl)-1-oxo-2-aza-8-azoniaspiro[4.5]decane]: the IC50 was found to be 40 nM.

Molecule `CC1=C(N2CCC3(CCN(C[C@H](O)c4nnc(-n5cnnn5)c(C)c4C)CC3)C2=O)COC1=O` [Example 69, 8-{(2S)-2-[4,5-dimethyl-6-(1H-tetrazol-1-yl)pyridazin-3-yl]-2-hydroxyethyl}-2-(4-methyl-5-oxo-2,5-dihydrofuran-3-yl)-1-oxo-2-aza-8-azoniaspiro[4.5]decane] showed a 50% inhibitory concentration (IC50) of 40 nM.

In turn, `CC1=C(N2CCC3(CCN(C[C@@H](O)c4nnc(-n5cnnn5)c(C)c4C)CC3)C2=O)COC1=O` [Example 70, 8-{(2R)-2-[4,5-dimethyl-6-(1H-tetrazol-1-yl)pyridazin-3-yl]-2-hydroxyethyl}-2-(4-methyl-5-oxo-2,5-dihydrofuran-3-yl)-1-oxo-2-aza-8-azoniaspiro[4.5]decane] came in with a 50% inhibitory concentration (IC50) of 30 nM. Molecule `CC1=C(N2CCC3(CCN(C[C@@H](O)c4cc(-n5cnnn5)ccn4)CC3)C2=O)COC1=O` [Example 71, 8-{(2R)-2-hydroxy-2-[4-(1H-tetrazol-1-yl)pyridin-2-yl]ethyl}-2-(4-methyl-5-oxo-2,5-dihydrofuran-3-yl)-1-oxo-2-aza-8-azoniaspiro[4.5]decane] gave an IC50 of 70 nM.

Values taken from patent US9765074B2, “Inhibitors of the renal outer medullary potassium channel” (Merck Sharp & Dohme Corp., priority 2013, dated 2017).
